We go through nine compounds from US12678440B2, “Compositions and methods for treating misfolded protein ocular disorders” (CASE WESTERN RESERVE UNIVERSITY, priority 2020, dated 2026).

As usually defined, the EC50 is the concentration that produces a half-maximal response. The low end stands for a more potent agent, the high end for a less potent agent.

Assay [1] concerns adRP-causing rhodopsin mutants (T4R, P23H, P53R, C110Y, D190N, P267L). Put plainly: High-content imaging of rhodopsin mutants stably expressed in U2OS cells. As to conditions: for immunofluorescence intensities of rhodopsin mutants: six adRP mutants. In kind it is cell-based, mouse. The procedure: Seven U2OS stable cell lines were generated which separately express the WT and six mutant mouse rhodopsin (T4R, P23H, P53R, C110Y, D190N, P267L) fused with Venus fluorescence protein. Briefly, the U2OS cells (ATCC, Manassas, VA, USA) were transfected with the pcDNA3.1 Zeo containing the cDNA of mouse WT or T4R, P23H, P53R, C110Y, D190N, P267L rhodopsin fused with Venus and transfected cells were incubated in DMEM with 10% FBS for 48 h before addition of 400 μg/mL of Zeocin for positive clone selection. Colonies of cells survived from 1 week of Zeocin selection were collected, and expression of WT and six mutant rhodopsins were confirmed by fluorescence of Venus and immunoblotting of rhodopsin.
To assess the effect of active compounds on the clearance of P23H rhodopsin in mammalian cells, an image-based assay was performed using NIH3T3 (RHO^WT/GFP) and NIH3T3 (RHO^P23H/GFP) cells, as described previously. Briefly, cells were seeded at 5000 cells per well in 384-well plates and incubated at 37° C. in 5% CO2 for 4 hours until cells were attached to the bottom of the plate. Attached cells were treated with compounds for 24 hours. The assay medium was aspirated, and cells were fixed with 4% paraformaldehyde at 20 μL per well for 20 min at room temperature. Cell membranes were permeabilized with PBS containing 0.1% Triton X-100 (PBST) and then incubated with 50 µg/mL 1D4 anti-rhodopsin antibody at 15 μL/well for 1 hour at room temperature. After three washes with 50 μl/well of PBST, cells were incubated with 15 μL/well Cy3-conjugated goat anti-mouse IgG antibody for 1 hour at room temperature. After three washes with 50 μl/well of PBST, cells were incubated in 50 μl/well of PBS containing 2 μg/mL Hoechst 33342 to stain the nuclei. Finally, the immunostained cells were imaged by an ImageExpress High Content Imaging System (MolecularDevices). Immunofluorescence of rhodopsin was measured by MetaXpress software using the mean of total fluorescence of Cy3 channel per cell per well taken from five fields containing 600-1000 intact cells per well. After normalizing the fluorescence intensities of rhodopsin to the DMSO treated cells as 0% and cells immunostained with secondary antibody only as −100%, dose-response curves for each compound were plotted and fitted by a modified Hill function using the Origin software. The high-content imaging experiments for hit validation were performed at the CWRU drug discovery facility, and the high-content imaging analyses for the MTX co-treatment with BafA1 and MG-132 were undertaken at the University of Pittsburgh Drug Discovery Institute.

In assay [2] the test system is WT mouse rhodopsin fused with Renilla luciferase (Rluc). The experiment in a line: Rluc reporter counter screen in Hek293 (RHO^WT-Rluc) cells. In kind it is cell-based. As to conditions: for Efficacy, Rluc assay Hek293 (RHO^WT − Rluc): 24 h, DMSO 0%, Evans Blue −100% controls; for EC50: 24 h compound treatment, dose-response, triplicate. An excerpt: Two Hek293 stable cell lines, Hek293 (RHO^WT-Rluc) and Hek293 (RHO^P23H-Rluc) cells were generated which stably express the WT and P23H mutant mouse rhodopsin each fused with a Renilla luciferase (Rluc) for the luciferase reporter assay as previously described. Briefly, the Hek 293 cells (ATCC, Manassas, VA, USA) were transfected with the pcDNA3.1 Zeo containing the cDNA of mouse WT or P23H rhodopsin fused with a Rluc 8 (a gift from Dr. Navine Lambert at Augusta University, Augusta, GA USA) and transfected cells were incubated in Dulbecco's modified Eagle's medium (DMEM, Genesee Scientific, E1 Cajon, CA USA) with 10% fetal bovine serum (FBS, Gibco Laboratories, Gaithersburg, MD USA) for 48 h before addition of 400 μg/mL of Zeocin (InvivoGen, San Diego, CA USA) for positive clone selection. Colonies of cells survived from 1 week of Zeocin selection were collected, and expression of WT and P23H rhodopsin were confirmed by a luciferase assay and immunoblotting of rhodopsin with positive bands of monomers at about 70 kD (FIG. 8). The difference of molecular masses between WT and P23H rhodopsin proteins was due to differences in glycosylation, which was also seen in the NIH3T3 cells expressing the WT and P23H rhodopsin proteins.
The HTS was performed at three facilities, including University of Cincinnati (UC), Case Western Reserve University, and National Center for Advancing Translational Sciences (NCATS), testing a total of six compound collections. These compound collections include: 1) the UC 10K Diversity Set (10,011 compounds), 2) the Life Chemicals 50K Collection (50,560), 3) the Spectrum Collection (2,400 compounds), 4) the LOPAC collection (1,280 compounds), 5) the FDA collection (2,816 compounds), and 6) the NCATS MIPE collection (1,912 compounds). […] For the compound collections 1), 2) and 3), we firstly tested each compound using the P23H rhodopsin luciferase reporter assay at a single dose for once (9.93 to 16.13 μM) in 384-well format, and we identified 2072 compounds with activity scores lower than the cutoff at mean-2SD. Activity scores were normalized using DMSO treated cells as 0% control and the 1 mM Evans Blue treated cells as −100% control. From these hit compounds, we excluded those reported with luciferase inhibitor activities and cherry-picked the rest for hit confirmation. Each hit was tested at 10 μM in the Hek293 (RHO^P23H-Rluc) cells again by the luciferase reporter assay in triplicates, and the confirmed hits with activity scores lower than-50% were then counter screened for their effects on Rluc activity by the recombinant Rluc activity assay, and on WT rhodopsin level by the luciferase reporter assay in the Hek293 (RHO^WT-Rluc) cells at 10 μM in triplicates, respectively. […] Next, we tested the dose responses of these confirmed hits in both the Hek293 (RHO^P23H-Rluc) and the Hek293 (RHO^WT-Rluc) cells and identified compounds that selectively favored the clearance of P23H than WT rhodopsin in a dose-dependent manner (Table 4). For the compound collections 4)-6), we tested each compound directly at 7 or 11 doses using the luciferase reporter assay in the Hek293 (RHO^P23H-Rluc) cells in 1536-well format, and identified 128 compounds with efficacy smaller than-50% and EC50<20 μM.
The Rluc reporter assay has been described before. HTS was undertaken in 384-well format for the UC 10K Diversity Set, Spectrum Collection and the Life Chemicals 50K diversity set, and in 1536-well format for the FDA, LOPAC, and MIPE collections. Using the 384-well format as an example, Hek (RHO^P23H-Rluc) cells were seeded in 384-well white-wall clear-bottom plates (assay plates) at 3×10^5/mL for 40 μL/well by an 8-channel Multiflo liquid dispenser (Bioteck, Winooski, VT USA). The assay plates were centrifuged at 300×g for 30 s and cultured at 37° C. with 5% CO2 overnight. […]
For orientation: A counterscreen serves to expose hits that act by an unwanted route or on another target.

For `CC(=O)OC(CC(=O)[O-])C[N+](C)(C)C` (stereo not drawn) [CL-001], the “immunofluorescence intensities of rhodopsin mutants” value (“immunofluorescence intensities” for short) in assay [1] is listed as “reduced”. In addition, in assay [2], the “Efficacy, Rluc assay Hek293 (RHO^WT − Rluc)” value (shortened to “Efficacy, Rluc assay Hek293”) was −44.3% and the EC50 is 1000 nM.
For the compound `CC(=O)OC(CC(=O)O)C[N+](C)(C)C` (stereo not drawn) [CL-002], in assay [1], the “immunofluorescence intensities” value is on record as “reduced”. In assay [2], the “Efficacy, Rluc assay Hek293” value is listed as −62.0% and the EC50 is 3400 nM.
With `O=C(O)C1=CC=CC(O)C1O` (stereo not drawn) [CL-003], in assay [2], the “Efficacy, Rluc assay Hek293” value was −37.7% and the EC50 came out at 1500 nM.
Turning to `CC(O)CN` (stereo not drawn) [CL-004], in assay [2], the “Efficacy, Rluc assay Hek293” value is listed as −45.5% and the EC50 came out at 920 nM.
In the case of `NCC(=O)COP(=O)(O)O` [CL-005], the “immunofluorescence intensities” value in assay [1] was “reduced”. In assay [2], the “Efficacy, Rluc assay Hek293” value is on record as −57.9% and a half-maximal effect (EC50) was put at 4200 nM.
Turning to `O=C(NC1CCNCC1)c1n[nH]cc1NC(=O)c1c(Cl)cccc1Cl` [CL-006], in assay [2], the “Efficacy, Rluc assay Hek293” value was −42.9% and the EC50 was 1520 nM.
Consider `CCn1cnc2c(N)ncnc21` [CL-007], for which the “immunofluorescence intensities” value in assay [1] is “reduced”. Moreover, in assay [2], the “Efficacy, Rluc assay Hek293” value is reported as −51.7% and the response was half-maximal at 11000 nM (EC50).
Consider `CCC(C)(O)C(O)C(=O)O` (stereo not drawn) [CL-008], for which, in assay [2], the “Efficacy, Rluc assay Hek293” value is on record as −52.7% and a half-maximal response (EC50) required 590 nM.
As for `CN(Cc1cnc2nc(N)nc(N)c2n1)c1ccc(C(=O)N[C@@H](CCC(=O)O)C(=O)O)cc1` [CL-009, N-[4-[[(2,4-diamino-6-pteridinyl)methyl]methylamino]benzoyl]-L-glutamic acid], in assay [1] (seven doses), the “rhodopsin immunofluorescence in cells expressing the P23H, C110Y, D190N and P267L mutants” value is reported as “dose-dependent reductions”.
